Where two headings read alike, the source gives them in different places.
Assays:
[1] = test system: natural population of lowland brush; test: Woody brush control with Metsulfuron Methyl; settings: MSM 1/5 oz/gal, no adjuvant; scale 1-5
[2] = test system: Didymella fungus that is resistant to azoxystrobin; test: Petri dish radial growth bioassay, agar impregnated with Quadris and/or benzyl alcohol; assay type: cell-based
[3] = test system: black rust (Puccinia graminis tritici); assay type: in vivo; settings: wheat, tebuconazole 2 fl oz/acre, no adjuvant, 21 days after treatment
[4] = Quadris 0 oz/ac, Benzyl Alcohol 6 oz/ac

In the case of `COC(=O)c1ccccc1S(=O)(=O)NC(=O)Nc1nc(C)nc(OC)n1` [MSM Alone], the “Observation at 28 DAT” value [1] is reported as 2.0.

`OCc1ccccc1` [Benzyl Alcohol only, benzyl alcohol] was tested, and the “Radial growth, 24 Hours” value [2, 4] was 4.83, the “Radial growth, 48 Hours” value [2, 4] was 8.42 and the “Radial growth, 72 Hours” value [2, 4] was 8.7. The “Radial growth, 96 Hours” value [2, 4] was 13.98, the “Radial growth, 120 Hours” value [2, 4] was 18.72 and the “Radial growth, 144 Hours” value [2, 4] was 25.05. For the same compound, the “Reduction in fungal growth (observation)” value ([2]; benzyl alcohol alone, petri dish) was “no reduction in fungal growth”.

In the case of `CC(C)(C)C(O)(CCc1ccc(Cl)cc1)Cn1cncn1` (stereo not shown) [Teb only, tebuconazole], the “Disease Severity Rating” value ([3]; mix water 35° F.) is reported as 51.3 and the “Disease Severity Rating” value ([3]; mix water 70° F.) is reported as 47.
